The record followed here is paper PMC12362764, “Novel Cyano‐Artemisinin Dimer ZQJ29 Targets PARP1 to Induce Ferroptosis in Pancreatic Cancer Treatment” (Advanced Science, 2025).

Series [1] relates to PANC-1 and KP4 cells. In words: Mitochondrial membrane potential assay (JC-1). Format: cell-based. As to conditions: 24 h. Here is the method: Mitochondrial membrane potential assay kits with JC‐1 (Beyotime, Shanghai, China) were used to measure the alteration of mitochondrial membrane potential (ΔΨm). After being treated with different concentrations of ZQJ29 (0, 1, 2.5, and 5 µM) for 24 h, cells were treated with the positive control reagent CCCP (10 µM) for 30 min at 37 °C. The cells were rinsed once with PBS, and the JC‐1 staining working solution was added for 30 min at 37 °C in the dark. Afterward, the cells were washed twice with 1 × JC‐1 staining buffer. Fluorescent images of the JC‐1‐stained cells were captured with a fluorescence microscope Cytation5 (BioTek, America).

The target in series [2] is PARP1 (Homo sapiens, UniProt P09874). In words: CETSA. Format: binding. Details: Total cellular proteins from PANC‐1 and KP4 were extracted using M‐PER lysis buffer; endogenous in cells; host or cells: PANC-1 and KP4 pancreatic cancer cells. Here is the method:
PANC‐1 and KP4 cells were treated with M‐PER lysis buffer to lyse the cells. The resulting protein extracts were divided into two parts. One part was treated with 50 µM ZQJ29, while the other received an equal amount of DMSO. Both mixtures were incubated on ice for 1 h. The samples were then divided into 100 µL PCR tubes and exposed to a range of temperatures starting at 45 °C. After cooling and centrifugation, 5 × SDS loading buffers were added to the supernatant. The samples were then heated to 95 °C for 10 min and analyzed SDS‐PAGE followed by Western blotting.

The next series concerns PANC-1. In words: CCK-8 cytotoxicity assay, PANC-1. It is filed as cell-based. Here is the method:
(§1) Cell viability was evaluated using the Cell Counting Kit‐8 (Beyotime, Shanghai, China) assay. Cells were seeded in 96‐well plates at a density of 2×10^3 cells to allow for attachment. After treatment with ZQJ29 (0.001, 0.01, 0.1, 10, and 25 µM) for 24, 48, and 72 h, 10 µL of CCK‐8 solution was added to each well and incubated for 1 h. The optical density values were then measured at 450 nm using a multifunctional enzyme‐linked immunosorbent assay reader (Tecan, Spark, Switzerland).

The subject of series [3] is PANC-1 and KP4 cells. As to the kind of experiment: CCK-8 viability after PARP1 siRNA knockdown. It is filed as cell-based. As to conditions: PARP1-siRNA transfection, ZQJ29 1 µM, 24 h. Here is the method: as §1
A short interfering RNA (siRNA) targeting human PARP1 was designed and synthesized by GenePharma (Shanghai, China). The sequences of the siRNAs are detailed in Table S5 (Supporting Information). PANC‐1 and KP4 Cells were cultured in six‐well plates until they reached 70% confluence. The cells were then transfected with 50 nM siRNA‐PARP1 or a negative control with Lipofectamine 2000 (Thermo Fisher, USA) for 24 h, according to the manufacturer's instructions.

The subject of the next series is THLE-2. As to the kind of experiment: CCK-8 cytotoxicity assay, THLE-2 (normal cell line). As to conditions: Homo sapiens, 72 h. Format: cell-based. Here is the method: as §1
Series [4] deals with PARP1. In words: PARP1 expression (western blot, immunofluorescence). Format: cell-based. Here is the method:
For western blotting analysis, ZQJ29‐treated cells were lysed with RIPA Lysis Buffer (Yeasen, Shanghai, China) containing protease and phosphatase inhibitors (Yeasen, Shanghai, China) on ice. The cell lysates were quantified using the BCA Protein Assay Kit (Beyotime, Shanghai, China). Samples were subjected to SDS‐PAGE and transferred to PVDF membranes (Beyotime, Shanghai, China). The membranes were blocked with 5% nonfat milk in TBST (Buffered Saline with 0.1% Tween 20) for 1 h, followed by overnight incubation at 4 °C with primary antibodies. After washing the membranes three times with TBST, they were incubated with the appropriate secondary antibodies for 2 h at room temperature. Following another three times with TBST, the bands on the membranes were detected using the ECL‐Plus Western Blotting Detection System (Yeasen, Shanghai, China).
PARP1 expression in the cell nucleus was detected using immunofluorescence. The cells were seeded in a 12‐well plate and treated with ZQJ29 (0, 1, 2.5, and 5 µM) after complete adhesion. After a specific duration of treatment, fixation, blocking, and antibody incubation were performed, and images were captured using a Cytation 5‐cell imaging microplate detection system.

Series [5] is described as follows: Pharmacokinetic study after intragastric administration. Format: in vivo, Sprague-Dawley (SD) rats. As to conditions: rat, 50 mg/kg i.g. Here is the method: Male Sprague‐Dawley (SD) rats (200 ± 20 g) were purchased from Beijing Vital River Laboratory Animal Technology Co., Ltd. (Beijing, China). After a one‐week acclimatization period, the rats were injected intragastrically with ZQJ29 (50 mg kg^−1). Blood samples were collected from the jugular veins after the injection of ZQJ29 (at 5, 10, 20, 40, 60, 120, 240, 360, 720, and 1440 min). The whole blood was centrifuged at 4000 × g for 10 min at 4 °C. Plasma was extracted with MeOH by vortexing for 10 min. After centrifugation for 12 min at 12 000 × g at 4 °C, the supernatant was analyzed using an HPLC‐MS/MS system. The concentration of ZQJ29 was quantitatively measured by the external standard method. Pharmacokinetic parameters were calculated using Drug and Statistic (DAS, version 2.0) software based on the compartmental method.

[6] abbreviates: male, Sprague-Dawley, plasma, po, n = 6.

A value given as a limit tells only on which side of the number the result lay.

Sequence of PARP1 (Homo sapiens, UniProt P09874) (P09874 whole entry): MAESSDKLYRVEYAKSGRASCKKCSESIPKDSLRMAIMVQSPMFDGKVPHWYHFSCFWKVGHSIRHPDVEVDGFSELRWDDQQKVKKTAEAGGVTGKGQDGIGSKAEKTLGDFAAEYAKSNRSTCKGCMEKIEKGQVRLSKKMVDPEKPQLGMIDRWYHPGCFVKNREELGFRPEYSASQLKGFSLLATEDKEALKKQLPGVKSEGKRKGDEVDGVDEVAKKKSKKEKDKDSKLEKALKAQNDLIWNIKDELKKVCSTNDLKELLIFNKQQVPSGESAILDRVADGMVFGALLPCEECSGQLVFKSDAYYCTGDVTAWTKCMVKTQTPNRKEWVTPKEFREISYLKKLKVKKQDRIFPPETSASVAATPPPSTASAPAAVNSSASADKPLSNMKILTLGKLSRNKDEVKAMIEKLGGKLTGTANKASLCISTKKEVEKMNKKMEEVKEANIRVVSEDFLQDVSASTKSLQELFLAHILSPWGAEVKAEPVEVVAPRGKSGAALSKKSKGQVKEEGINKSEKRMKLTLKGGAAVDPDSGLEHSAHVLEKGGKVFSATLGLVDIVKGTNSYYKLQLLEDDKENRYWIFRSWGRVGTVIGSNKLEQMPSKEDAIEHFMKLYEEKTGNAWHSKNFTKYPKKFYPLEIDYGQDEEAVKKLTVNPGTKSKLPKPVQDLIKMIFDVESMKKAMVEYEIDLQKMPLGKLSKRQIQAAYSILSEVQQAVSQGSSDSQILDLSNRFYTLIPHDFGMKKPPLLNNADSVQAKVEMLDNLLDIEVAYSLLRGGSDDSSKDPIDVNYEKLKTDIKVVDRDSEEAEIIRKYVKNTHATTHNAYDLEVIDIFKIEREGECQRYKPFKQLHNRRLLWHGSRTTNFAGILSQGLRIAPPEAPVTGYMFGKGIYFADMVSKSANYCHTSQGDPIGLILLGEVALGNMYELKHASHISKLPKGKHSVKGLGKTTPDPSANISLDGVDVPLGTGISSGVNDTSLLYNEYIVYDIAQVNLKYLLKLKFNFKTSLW

With `CC1CCC2C(C)C(OCCN(C#N)CCOC3OC4OC5(C)CCC6C(C)CCC(C3C)C46OO5)OC3OC4(C)CCC1C32OO4` (stereo not drawn) [ZQJ29], the “mitochondrial membrane potential (MMP), JC-1” value in the series with PANC-1 and KP4 cells [1] is reported as “decrease in MMP”. Further, the “PARP1 accumulation (thermal stability)” value at PARP1 [2] (PANC-1 and KP4 lysates, 50 µM ZQJ29, 45 to 70 °C) is given as “significantly increased”. Moreover, on PARP1 [2] (cell lysates, increasing ZQJ29 concentrations), the “PARP1 stability at 60 °C” value is “enhanced”. The compound also returned an IC50 with PANC-1 (Homo sapiens, PANC-1, 72 h, average of 3 parallel tests) of 120 ± 30 nM. Further, in the series on PANC-1 (PANC-1 cells), the “increased cytotoxicity compared to OXA and DHA” value was “≈ 100 fold”. Besides, in the series on PANC-1 and KP4 cells [3], the “proliferation inhibition by ZQJ29 upon PARP1 knockdown” value is on record as “markedly reversed”. Moreover, in the series with THLE-2, the IC50 is above 10000 nM. Further, the “nucleoplasmic PARP1 levels (immunofluorescence)” value with PARP1 [4] (PANC-1 and KP4 cells, 0, 1, 2.5, 5 µM, 24 h) is “remarkably reduced”. Also, in the series with PARP1 [4] (PANC-1 and KP4 cells, time- and concentration-dependent), the “PARP1 expression (western blot)” value is “significantly reduced”. In series [5] (setting [6]), this compound had an AUC(0-t) of 40 ± 16.3 ng·h/mL and a Cmax of 11.8 ± 6.05 ng/mL. The MRT last in series [5] (male, Sprague-Dawley, plasma, po, n = 6, read-out: MRT0-t) amounted to 2.74 ± 0.46 h. The MRT inf in series [5] (male, Sprague-Dawley, plasma, po, read-out: average residence time (MRT0-inf)) was 2.74 h. Besides, the half-life in series [5] (male, Sprague-Dawley, plasma, po, 50 mg/kg, n = 6) is 1.58 ± 0.26 h. In series [5] (n = 6, 50 mg/kg), the t1/2 came out at 1.6 h.
